Patent US11952431B2, “Neutrophil-binding peptides” (YISSUM RESEARCH DEVELOPMENT COMPANY OF THE HEBREW …, priority 2020, dated 2024)

Experiments:
human neutrophils = assay: 16-KFP binding in whole blood; conditions: healthy donor
Excerpt: (§1) A biotinylated KFP-tetramer multiantigen (designated 16-KFP) was generated in the same manner as the 16-LQI. In whole blood, 16-KFP bound ˜80% of human neutorophils and less than 10% of non-neutrophil WBC (FIG. 15A).

neutrophils [1] = assay: Effect of KFP-tetramer / 16-KFP on neutrophil chemotaxis; assay type: cell-based, human
Excerpt: as §1

CD177 [2] = target: T1, CD177 (Homo sapiens, UniProt Q8N6Q3); assay: Pull-down with KFP-tetramer as bait, mass spectrometry; assay type: binding
T1 construct: endogenous in cells; host or cells: human neutrophils from healthy donors, COPD patients and lung cancer patients
T1 sequence (Q8N6Q3 22-408): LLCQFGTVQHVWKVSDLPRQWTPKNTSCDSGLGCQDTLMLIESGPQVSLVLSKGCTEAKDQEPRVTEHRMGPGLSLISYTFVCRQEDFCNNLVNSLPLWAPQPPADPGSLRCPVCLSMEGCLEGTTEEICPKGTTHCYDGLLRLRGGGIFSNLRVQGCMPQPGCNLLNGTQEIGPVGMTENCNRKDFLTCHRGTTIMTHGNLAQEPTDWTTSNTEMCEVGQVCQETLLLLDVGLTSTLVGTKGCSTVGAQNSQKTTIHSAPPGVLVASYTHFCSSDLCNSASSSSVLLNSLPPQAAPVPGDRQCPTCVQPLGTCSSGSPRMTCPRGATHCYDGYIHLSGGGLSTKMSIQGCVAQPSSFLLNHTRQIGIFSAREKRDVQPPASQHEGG
Excerpt: (§2) Similarly, the human CD177 was identified as a binding-partner of the peptides binding to human neutrophils (SEQ ID NOs: 1-8). […] Still, the extent of KFP-tetramer binding and CD177 levels fit well within the correlation plot and support the role of CD177 in mediating the binding of the KFP-tetramer to neutrophils (FIG. 22B).

neutrophils [3] = assay: Effect of KFP-tetramer / 16-KFP on neutrophil activation (ROS production); assay type: cell-based, human
Excerpt: as §1

neutrophils [4] = assay: Effect of KFP-tetramer / 16-KFP on neutrophil viability (microscopy, flow cytometry); assay type: cell-based, human
[5] = test system: murine neutrophils (HDNs from 4T1-tumor bearing mice); assay: Titration of binding to purified HDNs, flow cytometry; parameters: species or system mouse; conditions: tetramer-SA complex of control peptide
Method: Analysis was performed by flow cytometry.

non-neutrophil WBC = assay: 16-KFP binding in whole blood; parameters: species or system human; conditions: healthy donor
Excerpt: as §1

CD177 [6] = target: T1, CD177; assay: Correlation of CD177 expression and KFP-tetramer binding in donors; conditions: healthy donors, patients with COPD and lung cancer patients
Excerpt: FIGS. 22A-C: (22A) Bar graph of 16-KFP binding and CD177 expression of neutrophils of healthy donors (2, 6, 10), COPD patients (11, 12) and lung cancer patients (13). (22B) Line graph of correlation between CD177 expression and 16-KFP binding in different donors. (22C) Bare graph of binding of 16-KFP to neutrophils with increasing amounts of CD177 blocking antibody.
as §2

| Substance | human neutrophils bound (human neutrophils) [%] | effect on chemotactic properties (neutrophils [1]) | binding partner identified (CD177 [2]) | effect on neutrophil activation (ROS production, FIG. 15B) (neutrophils [3]) | effect on neutrophil viability (neutrophils [4]) | binding to murine neutrophils [5] | non-neutrophil WBC bound (non-neutrophil WBC) | chemoattraction of neutrophils (neutrophils [1]; FIG. 15E) | effect on neutrophil attraction to CXCL2 (neutrophils [1]; FIG. 15F) | correlation between CD177 expression and binding to neutrophils (CD177 [6]) |
| --- | --- | --- | --- | --- | --- | --- | --- | --- | --- | --- |
| 16-KFP: biotinylated KFP-tetramer multiantigen generated in the same manner as 16-LQI; tetramer-SA complex used as control on murine neutrophils [Peptide 16-KFP] | ~80 | no significant effect | CD177 was identified as the binding partner | no significant effect | no significant effect | did not show binding | less than 10% |  |  |  |
| (KFPDLDSRRLPHMSL (SEQ ID NO: 1) Doa-Doa-C)4-(Mpa)-4-Lys2-Lys-beta-Ala-Lys(Biotin)-beta-Ala-OH [KFP tetramer] |  |  |  | no effect |  |  |  | not chemoattractive | no effect | strong positive correlation |
